In patent US7420001B2 (Wyeth, priority 2003, dated 2008) one finds IC50 data, which are given here for 23 compounds.

Structures are written as SMILES. Like-named read-outs stand apart in the source and are kept apart here.

One experiment concerns the target T1, MMP-2 (Homo sapiens, UniProt P08253).
T1 construct: purchased Oncogene Research Products (Calbiochem) PF023
T1 sequence (P08253 110-660): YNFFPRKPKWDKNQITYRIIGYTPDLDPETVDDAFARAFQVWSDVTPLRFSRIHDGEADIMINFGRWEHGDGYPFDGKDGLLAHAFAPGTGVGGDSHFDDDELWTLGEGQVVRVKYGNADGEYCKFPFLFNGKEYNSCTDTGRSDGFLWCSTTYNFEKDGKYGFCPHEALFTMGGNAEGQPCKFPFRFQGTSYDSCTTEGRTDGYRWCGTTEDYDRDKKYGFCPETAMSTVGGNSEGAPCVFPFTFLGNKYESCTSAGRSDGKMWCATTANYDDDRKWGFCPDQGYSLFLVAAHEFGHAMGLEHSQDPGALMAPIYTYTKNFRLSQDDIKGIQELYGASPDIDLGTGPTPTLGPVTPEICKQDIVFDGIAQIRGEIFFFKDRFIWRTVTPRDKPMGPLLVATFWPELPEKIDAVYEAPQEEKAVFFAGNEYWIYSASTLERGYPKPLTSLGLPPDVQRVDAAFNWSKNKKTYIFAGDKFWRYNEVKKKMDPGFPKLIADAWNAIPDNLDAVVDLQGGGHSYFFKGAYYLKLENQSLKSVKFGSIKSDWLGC
Nature of the experiment: In-vitro fluorescence assay of MMP-2 activity. In kind it is biochemical. Conditions: recombinant human MMP-2; read-out: MMP-2 IC50.

For the next experiment, the target named is T2, MMP-13 (Homo sapiens, UniProt P45452).
T2 construct: made in house
Description: In-vitro fluorescence assay of MMP-13 activity. In kind it is biochemical.

The mark [1] stands for this setting: recombinant human catalytic domain of MMP-13, read-out: MMP-13 IC50.

As to `Cc1c(C(=O)Nc2ccc(-c3ccc(S(=O)(=O)N[C@H](C(=O)O)C(C)C)cc3)cc2)oc2cccc(-c3ccoc3)c12` [Example 113, (S)-2-{4′-[(4-Furan-3-yl-3-methyl-benzofuran-2-carbonyl)-amino]-biphenyl-4-sulfonylamino}-3-methyl-butyric acid], the IC50 at MMP-2 came to 2.06 µM; at MMP-13 (MMP-13 IC50, recombinant human catalytic domain of MMP-13), 0.0064 µM.
With `COC(=O)COc1cccc2oc(C(=O)Nc3ccc(-c4ccc(S(=O)(=O)N[C@H](C(=O)O)C(C)C)cc4)cc3)c(C)c12` [Example 158, L-2-{4′-[(4-Methoxycarbonylmethoxy-3-methyl-benzofuran-2-carbonyl)-amino]-biphenyl-4-sulfonylamino}-3-methyl-butyric acid], the half-inhibitory concentration (IC50) was 1.84 µM at MMP-2 and 0.0087 µM on MMP-13 (setting [1]).
For `Cc1c(C(=O)Nc2ccc(-c3ccc(S(=O)(=O)N[C@H](C(=O)O)C(C)C)cc3)cc2)oc2cccc(C#CCO)c12` [Example 26, L-2-(4′-{[4-(3-Hydroxy-prop-1-ynyl)-3-methyl-benzofuran-2-carbonyl]-amino}-biphenyl-4-sulfonylamino)-3-methyl-butyric acid] the same measures were 3.38 µM and 0.0062 µM.
As for `CC(C)[C@H](NS(=O)(=O)c1ccc(-c2ccc(NC(=O)c3cc4cc(NS(=O)(=O)c5ccccc5)ccc4o3)cc2)cc1)C(=O)O` [Example 10, 4′-[(5-Benzenesulfonylamino-benzofuran-2-carbonyl)-amino]-biphenyl-4-sulfonyl-L-valine], the IC50 on MMP-2 worked out at 0.019 µM; on MMP-13 (setting [1]) it was 0.0034 µM.
For `Cc1c(C(=O)Nc2ccc(-c3ccc(S(=O)(=O)N[C@@H](C(=O)O)C(C)C)cc3)cc2)oc2cccc(NS(C)(=O)=O)c12` [Example 41, D-2-{4-[(4-Methanesulfonylamino-3-methyl-benzofuran-2-carbonyl)-amino]-biphenyl-4-sulfonylamino}-3-methyl-butyric acid] the same measures were 1.46 µM and 0.0085 µM.
For `CC(=O)c1ccc2oc(C(=O)Nc3ccc(-c4ccc(S(=O)(=O)N[C@H](C(=O)O)C(C)C)cc4)cc3)c(C)c2c1O` [Example 123, (S)-2-{4′-[(5-Acetyl-4-hydroxy-3-methyl-benzofuran-2-carbonyl)-amino]-biphenyl-4-sulfonylamino}-3-methyl-butyric acid] the same measures were 0.063 µM and 0.0032 µM.
In the case of `CC(C)[C@H](NS(=O)(=O)c1ccc(-c2ccc(NC(=O)c3nc4cc(C(F)(F)F)ccc4s3)cc2)cc1)C(=O)O` [Example 131, (S)-3-Methyl-2-{4′-[(5-trifluoromethyl-benzothiazole-2-carbonyl)-amino]-biphenyl-4-sulfonylamino}-butyric acid], the IC50 is 0.149 µM at MMP-2 and 0.017 µM at MMP-13 (setting [1]).
For `COc1c(C#N)ccc2oc(C(=O)Nc3ccc(-c4ccc(S(=O)(=O)N[C@H](C(=O)O)C(C)C)cc4)cc3)c(C)c12` [Example 124, (S)-2-{4′-[(5-Cyano-4-methoxy-3-methyl-benzofuran-2-carbonyl)-amino]-biphenyl-4-sulfonylamino}-3-methyl-butyric acid] the same measures were 0.522 µM and 0.003 µM.
Turning to `Cc1c(C(=O)Nc2ccc(-c3ccc(S(=O)(=O)N[C@H](C(=O)O)C(C)C)cc3)cc2)oc2cccc(NS(=O)(=O)C(C)C)c12` [Example 69, L-3-Methyl-2-(4′-{[3-methyl-4-(propane-2-sulfonylamino)-benzofuran-2-carbonyl]-amino}-biphenyl-4-sulfonylamino)-butyric acid], the IC50 on MMP-2 was 2.34 µM; at MMP-13 (setting [1]) it was 0.016 µM.
In the case of `COc1c(I)ccc2oc(C(=O)Nc3ccc(-c4ccc(S(=O)(=O)N[C@H](C(=O)O)C(C)C)cc4)cc3)c(C)c12` [Example 120, (S)-2-{4′-[(5-Iodo-4-methoxy-3-methyl-benzofuran-2-carbonyl)-amino]-biphenyl-4-sulfonylamino}-3-methyl-butyric acid], the results for the IC50 at MMP-2 and at MMP-13 (setting [1]) were 1.37 µM and 0.0021 µM, respectively.
For `Cc1c(C(=O)Nc2ccc(-c3ccc(S(=O)(=O)N[C@H](C(=O)O)C(C)C)cc3)cc2)oc2ccc(Br)cc12` [Example 45, 2-{4′-[(5-Bromo-3-methyl-benzofuran-2-carbonyl)-amino]-biphenyl-4-sulfonylamino}-3-methyl-butyric acid] the same measures were 0.081 µM and 0.003 µM.
The like results for `CCOC(=O)COc1cccc2oc(C(=O)Nc3ccc(-c4ccc(S(=O)(=O)N[C@H](C(=O)O)C(C)C)cc4)cc3)c(C)c12` [Example 157, L-2-{4′-[(4-Ethoxycarbonylmethoxy-3-methyl-benzofuran-2-carbonyl)-amino]-biphenyl-4-sulfonylamino}-3-methyl-butyric acid] were, in that order, 2.05 µM and 0.0088 µM.
For `CCc1ccc2oc(C(=O)Nc3ccc(-c4ccc(S(=O)(=O)N[C@H](C(=O)O)C(C)C)cc4)cc3)c(C)c2c1O` [Example 90, N-[(4′-{[(5-Ethyl-4-hydroxy-3-methyl-1-benzofuran-2-yl)carbonyl]amino}-1,1′-biphenyl-4-yl)sulfonyl]-L-valine] the same measures were 1.76 µM and 0.0071 µM.
In the case of `Cc1c(C(=O)Nc2ccc(-c3ccc(S(=O)(=O)N[C@H](C(=O)O)C(C)C)cc3)cc2)oc2cccc(C#CC3CC3)c12` [Example 23, 2-{4′-[(4-Cyclopropylethynyl-3-methyl-benzofuran-2-carbonyl)-amino]-biphenyl-4-sulfonylamino}-3-methyl-butyric acid], the values for the IC50 on MMP-2 and on MMP-13 (setting [1]) were 3 µM and 0.021 µM, respectively.
`Cc1c(C(=O)Nc2ccc(-c3ccc(S(=O)(=O)N[C@H](C(=O)O)C(C)C)cc3)cc2)oc2cccc(O)c12` [Example 161, L-2-{4′-[(4-Hydroxy-3-methyl-benzofuran-2-carbonyl)-amino]-biphenyl-4-sulfonylamino}-3-methyl-butyric acid]: the figures for the IC50 on MMP-2 and on MMP-13 (setting [1]) were 0.379 µM and 0.0061 µM, respectively.
For the compound `Cc1c(C(=O)Nc2ccc(-c3ccc(S(=O)(=O)N[C@H](C(=O)O)C(C)C)cc3)cc2)oc2cccc(C3COC(C)(C)O3)c12` (stereo partly drawn) [Example 91, N-{[4′-({[4-(2,2-Dimethyl-1,3-dioxolan-4-yl)-3-methyl-1-benzofuran-2-yl]carbonyl}amino)-1,1′-biphenyl-4-yl]sulfonyl}-L-valine], the IC50 at MMP-2 was 2.23 µM; on MMP-13 (setting [1]) it was 0.0069 µM.
As to `COC(C)c1cccc2oc(C(=O)Nc3ccc(-c4ccc(S(=O)(=O)N[C@H](C(=O)O)C(C)C)cc4)cc3)c(C)c12` (stereo partly drawn) [Example 101, N-{[4′-({[4-(1-methoxyethyl)-3-methyl-1-benzofuran-2-yl]carbonyl}amino)-1,1′-biphenyl-4-yl]sulfonyl}-L-valine], the IC50 on MMP-2 was determined as 2 µM; on MMP-13 (setting [1]), 0.0058 µM.
The like results for `Cc1c(C(=O)Nc2ccc(-c3ccc(S(=O)(=O)N[C@H](C(=O)O)C(C)C)cc3)cc2)oc2cccc(OCc3ccncc3)c12` [Example 179, (S)-3-Methyl-2-(4′-{[3-methyl-4-(pyridin-4-ylmethoxy)-benzofuran-2-carbonyl]-amino}-biphenyl-4-sulfonylamino)-butyric acid] were, in that order, 4 µM and 0.0071 µM.
The like results for `CCc1c(C(=O)Nc2ccc(-c3ccc(S(=O)(=O)N[C@H](C(=O)O)C(C)C)cc3)cc2)oc2ccccc12` [Example 58, L-2-{4′-[(3-Ethyl-benzofuran-2-carbonyl)-amino]-biphenyl-4-sulfonylamino}-3-methyl-butyric acid] were, in that order, 1.77 µM and 0.056 µM.
For `Cc1c(C(=O)Nc2ccc(-c3ccc(S(=O)(=O)N[C@H](C(=O)O)C(C)C)cc3)cc2)oc2cccc(C(C)O)c12` (stereo partly drawn) [Example 95, N-{[4′-({[4-(1-Hydroxyethyl)-3-methyl-1-benzofuran-2-yl]carbonyl}amino)-1,1′-biphenyl-4-yl]sulfonyl}-L-valine] the same measures were 2.07 µM and 0.0084 µM.
Consider `Cc1c(C(=O)Nc2ccc(-c3ccc(S(=O)(=O)N[C@H](C(=O)O)C(C)C)cc3)cc2)oc2cccc(N3CCCC3)c12` [Example 63, L-3-Methyl-2-{4′-[(3-methyl-4-pyrrolidin-1-yl-benzofuran-2-carbonyl)-amino]-biphenyl-4-sulfonylamino}-butyric acid], for which the figures for the IC50 at MMP-2 and on MMP-13 (setting [1]) were 5 µM and 0.028 µM, respectively.
In the case of `Cc1cccc2oc(C(=O)Nc3ccc(-c4ccc(S(=O)(=O)N[C@H](C(=O)O)C(C)C)cc4)cc3)c(C)c12` [Example 93, N-[(4′-{[(3,4-Dimethyl-1-benzofuran-2-yl)carbonyl]amino}-1,1′-biphenyl-4-yl)sulfonyl]-L-valine], the figures for the IC50 on MMP-2 and at MMP-13 (setting [1]) were 1.15 µM and 0.0048 µM, respectively.
The like results for `Cc1c(C(=O)Nc2ccc(-c3ccc(S(=O)(=O)N[C@H](C(=O)O)C(C)C)cc3)cc2)oc2cccc(OCC(=O)N(C)C)c12` [Example 176, (S)-2-{4′-[(4-Dimethylcarbamoylmethoxy-3-methyl-benzofuran-2-carbonyl)-amino]-biphenyl-4-sulfonylamino}-3-methyl-butyric acid] were, in that order, 4.34 µM and 0.02 µM.

The term IC50 denotes the midpoint of a concentration-inhibition curve.
